# Measured values as given in patent US20120214824A1, “PROTEOSTASIS REGULATORS” (priority 2010, published 2012).
# What was measured:
# Assay in all cases: Multigene assay (QuantiGene Plex 2.0), mouse MEF cell line
# Assay type in all cases: cell-based
# Settings in all cases: 6 hours post-compound treatment
# [1] = tested on: BCL2
# Description: (§1) This assay used the QuantiGene Plex 2.0 Reagent System from Affymetrix. This assay combines the use of bDNA (branch DNA) and xMAP magnetic capture beads from Luminex Technologies to quantitatively and simultaneously detect multiple mRNA transcripts per well. The overall procedure was performed according to the QuantiGene Plex 2.0 Reagent System instruction manual from Affymetrix.
# (§2) Cells were seeded at a density of 12,000 cells/well in 96-well plates with an overnight incubation at 37° C., 5% CO2. Cells were treated with serially diluted compounds in a 7-point dose dependent manner. Cell lysis with 50% [v/v] Panomics Lysis Mixture (Lysis Mixture+10 μl/ml 25 Proteinase K) was performed 6 hours post-compound treatment. Lysed cells were heated at 50° C. to ensure appropriate lysing and the plates were then frozen at −80° C. Cell lysates, thawed at room temperature on the day of the assay, were pooled with mouse 8-gene multiplex probe sets and with 8 different sets of magnetic capture beads (Luminex Technology, Austin, Tex.) in a 100 μl/well volume. Biomek FX was used at every liquid transfer step. The eight plates containing lysate-probe-bead mixtures were incubated at 54° C.±1° C. on a shaking platform for an overnight incubation in the dark (18-20 hours). The following day the hybridization plates were compressed by transferring the hybridized lysates into a single magnetic capture plate. The plate was kept on a magnet to hold the beads and then washed with Panomics Wash Buffer 2.0 on a BioTek ELx405 select plate washer to remove any unbound sample. This step was followed by serial hybridizations and washings of the bDNA pre-amplifier (1 hour, 50° C.), bDNA amplifier (1 hour, 50° C.), label probe (1 hour, 50° C.), and streptavidin-phycoerythrin (SAPE, 30 minutes, room temperature). (Zhang, A. et al. Small interfering RNA and gene expression analysis using a multiplex branched DNA assay without RNA purification. J Biomol Screen 10, 549-56 (2005)). The plate was then washed with SAPE wash buffer to remove unbound SAPE and each well was analyzed with the Luminex FlexMap3D (Luminex, Austin, Tex.). SAPE fluorescence measured from each bead was proportional to the number of mRNA transcripts captured by the beads (Zheng, Z., Luo, Y. & McMaster, G. K. Sensitive and quantitative measurement of gene expression directly from a small amount of whole blood. Clin Chem 52, 1294-302 (2006)). Fold changes in gene expression were obtained for each gene per well by normalizing the raw data first to the DMSO control and then to a housekeeping gene (TBP-TATA binding protein or Tub1-alpha-tubulin).
# [2] = tested on: DDIT3
# Description: as §1, §2
# [3] = tested on: GCLM
# Description: as §1, §2
# [4] = tested on: HMOX
# Description: as §1, §2
# [5] = tested on: HSPA1a
# Description: as §1, §2
# [6] = tested on: HspA5
# Description: as §1, §2
# [7] = tested on: TUB1
# Description: as §1, §2
structure (smiles),measurement,setting,value
CCCc1n[nH]c2c1C(C1CC=CCC1)C(C#N)=C(N)O2 (stereo not shown),BCL2 gene induction,[1]; Table 5,— (— Indicates less than 2 fold induction)
same,DDIT3 gene induction,[2]; Table 5,— (— Indicates less than 2 fold induction)
same,GCLM gene induction,[3]; Table 5,+ (+ indicates a induction of greater than 2 fold)
same,HMOX gene induction,[4]; Table 5,+ (+ indicates a induction of greater than 2 fold)
same,HSPA1a gene induction,[5]; Table 5,— (— Indicates less than 2 fold induction)
same,HspA5 gene induction,[6]; Table 5,— (— Indicates less than 2 fold induction)
same,TUB1 gene induction,[7]; Table 5,— (— Indicates less than 2 fold induction)
COC(=O)C1=C(C)Nc2c(c(=O)n(C)c(=O)n2C)C1c1ccc(F)cc1 (stereo not shown) [A],BCL2 gene induction,[1]; Table 6,+ (+ indicates a induction of greater than 2 fold)
same,DDIT3 gene induction,[2]; Table 6,+ (+ indicates a induction of greater than 2 fold)
same,GCLM gene induction,[3]; Table 6,— (— Indicates less than 2 fold induction)
same,HMOX gene induction,[4]; Table 6,— (— Indicates less than 2 fold induction)
same,HSPA1a gene induction,[5]; Table 6,— (— Indicates less than 2 fold induction)
same,HspA5 gene induction,[6]; Table 6,— (— Indicates less than 2 fold induction)
same,TUB1 gene induction,[7]; Table 6,— (— Indicates less than 2 fold induction)
CCn1c2c(c(=O)[nH]c1=O)C(c1cccc3ccccc13)C1=C(N2)c2ccccc2C1=O (stereo not shown) [B],BCL2 gene induction,[1]; Table 6,— (— Indicates less than 2 fold induction)
same,DDIT3 gene induction,[2]; Table 6,+ (+ indicates a induction of greater than 2 fold)
same,GCLM gene induction,[3]; Table 6,— (— Indicates less than 2 fold induction)
same,HMOX gene induction,[4]; Table 6,+ (+ indicates a induction of greater than 2 fold)
same,HSPA1a gene induction,[5]; Table 6,+ (+ indicates a induction of greater than 2 fold)
same,HspA5 gene induction,[6]; Table 6,— (— Indicates less than 2 fold induction)
same,TUB1 gene induction,[7]; Table 6,— (— Indicates less than 2 fold induction)
COCC1=C(C(=O)OCC(C)C)C(c2ccc(F)cc2)C2=C(CC(c3cccs3)CC2=O)N1 (stereo not shown) [drawing 26/CH2OMe/COOCH2CHMe2/p-F],BCL2 gene induction,[1]; Table 1b,− (− Indicates less than 2 fold induction)
same,DDIT3 gene induction,[2]; Table 1a,+ (+ indicates a induction of greater than 2 fold)
same,GCLM gene induction,[3]; Table 1a,− (− Indicates less than 2 fold induction)
same,HMOX gene induction,[4]; Table 1b,+ (+ indicates a induction of greater than 2 fold)
same,HSPA1a gene induction,[5]; Table 1b,− (− Indicates less than 2 fold induction)
same,HspA5 gene induction,[6]; Table 1b,− (− Indicates less than 2 fold induction)
same,TUB1 gene induction,[7]; Table 1a,− (− Indicates less than 2 fold induction)
COc1ccccc1C1C(C#N)=C(C)NC2=C1C(=O)CC(c1ccccc1)C2 (stereo not shown) [drawing 27/Me/CN/o-OMe/H],BCL2 gene induction,[1]; Table 2b,− (− Indicates less than 2 fold induction)
same,DDIT3 gene induction,[2]; Table 2a,− (− Indicates less than 2 fold induction)
same,GCLM gene induction,[3]; Table 2a,− (− Indicates less than 2 fold induction)
same,HMOX gene induction,[4]; Table 2b,− (− Indicates less than 2 fold induction)
same,HSPA1a gene induction,[5]; Table 2b,+ (+ indicates a induction of greater than 2 fold)
same,HspA5 gene induction,[6]; Table 2b,− (− Indicates less than 2 fold induction)
same,TUB1 gene induction,[7]; Table 2a,− (− Indicates less than 2 fold induction)
COc1ccc(C2CC(=O)C3=C(C2)NC(C)=C(C(=O)OCC(C)C)C3c2cccc(F)c2)cc1 (stereo not shown) [drawing 27/Me/COOCH2CHMe2/m-F/OMe],BCL2 gene induction,[1]; Table 2b,+ (+ indicates a induction of greater than 2 fold)
same,DDIT3 gene induction,[2]; Table 2a,− (− Indicates less than 2 fold induction)
same,GCLM gene induction,[3]; Table 2a,+ (+ indicates a induction of greater than 2 fold)
same,HMOX gene induction,[4]; Table 2b,+ (+ indicates a induction of greater than 2 fold)
same,HSPA1a gene induction,[5]; Table 2b,+ (+ indicates a induction of greater than 2 fold)
same,HspA5 gene induction,[6]; Table 2b,− (− Indicates less than 2 fold induction)
same,TUB1 gene induction,[7]; Table 2a,− (− Indicates less than 2 fold induction)
CC1=C(C(=O)OCC(C)C)C(c2ccccc2OC(C)C)C2=C(CC(c3ccccc3)CC2=O)N1 (stereo not shown) [drawing 27/Me/COOCH2CHMe2/o-OCHMe2/H],BCL2 gene induction,[1]; Table 2b,− (− Indicates less than 2 fold induction)
same,DDIT3 gene induction,[2]; Table 2a,+ (+ indicates a induction of greater than 2 fold)
same,GCLM gene induction,[3]; Table 2a,− (− Indicates less than 2 fold induction)
same,HMOX gene induction,[4]; Table 2b,− (− Indicates less than 2 fold induction)
same,HSPA1a gene induction,[5]; Table 2b,− (− Indicates less than 2 fold induction)
same,HspA5 gene induction,[6]; Table 2b,− (− Indicates less than 2 fold induction)
same,TUB1 gene induction,[7]; Table 2a,− (− Indicates less than 2 fold induction)
N#CC1=C(N)Oc2[nH]nc(C34CC5CC(CC(C5)C3)C4)c2C1c1cccs1 (stereo not shown) [drawing 29/1-Adamantyl/H/H/S],BCL2 gene induction,[1]; Table 4b,− (− Indicates less than 2 fold induction)
same,DDIT3 gene induction,[2]; Table 4a,− (− Indicates less than 2 fold induction)
same,GCLM gene induction,[3]; Table 4a,+ (+ indicates a induction of greater than 2 fold)
same,HMOX gene induction,[4]; Table 4b,+ (+ indicates a induction of greater than 2 fold)
same,HSPA1a gene induction,[5]; Table 4b,− (− Indicates less than 2 fold induction)
same,HspA5 gene induction,[6]; Table 4b,− (− Indicates less than 2 fold induction)
same,TUB1 gene induction,[7]; Table 4a,− (− Indicates less than 2 fold induction)
N#CC1=C(N)Oc2[nH]nc(-c3ccccn3)c2C1c1cccs1 (stereo not shown) [drawing 29/2-Pyridyl/H/H/S],BCL2 gene induction,[1]; Table 4b,− (− Indicates less than 2 fold induction)
same,DDIT3 gene induction,[2]; Table 4a,− (− Indicates less than 2 fold induction)
same,GCLM gene induction,[3]; Table 4a,+ (+ indicates a induction of greater than 2 fold)
same,HMOX gene induction,[4]; Table 4b,+ (+ indicates a induction of greater than 2 fold)
same,HSPA1a gene induction,[5]; Table 4b,− (− Indicates less than 2 fold induction)
same,HspA5 gene induction,[6]; Table 4b,− (− Indicates less than 2 fold induction)
same,TUB1 gene induction,[7]; Table 4a,− (− Indicates less than 2 fold induction)
CCCc1n[nH]c2c1C(c1ccc(C)o1)C(C#N)=C(N)O2 (stereo not shown) [drawing 29/(CH2)2Me/Me/H/O],BCL2 gene induction,[1]; Table 4b,− (− Indicates less than 2 fold induction)
same,DDIT3 gene induction,[2]; Table 4a,− (− Indicates less than 2 fold induction)
same,GCLM gene induction,[3]; Table 4a,+ (+ indicates a induction of greater than 2 fold)
same,HMOX gene induction,[4]; Table 4b,+ (+ indicates a induction of greater than 2 fold)
same,HSPA1a gene induction,[5]; Table 4b,− (− Indicates less than 2 fold induction)
same,HspA5 gene induction,[6]; Table 4b,− (− Indicates less than 2 fold induction)
same,TUB1 gene induction,[7]; Table 4a,− (− Indicates less than 2 fold induction)
COCc1n[nH]c2c1C(c1cccs1)C(C#N)=C(N)O2 (stereo not shown) [drawing 29/CH2OMe/H/H/S],BCL2 gene induction,[1]; Table 4b,− (− Indicates less than 2 fold induction)
same,DDIT3 gene induction,[2]; Table 4a,− (− Indicates less than 2 fold induction)
same,GCLM gene induction,[3]; Table 4a,+ (+ indicates a induction of greater than 2 fold)
same,HMOX gene induction,[4]; Table 4b,+ (+ indicates a induction of greater than 2 fold)
same,HSPA1a gene induction,[5]; Table 4b,− (− Indicates less than 2 fold induction)
same,HspA5 gene induction,[6]; Table 4b,− (− Indicates less than 2 fold induction)
same,TUB1 gene induction,[7]; Table 4a,− (− Indicates less than 2 fold induction)
CC(C)(C)c1n[nH]c2c1C(c1cccs1)C(C#N)=C(N)O2 (stereo not shown) [drawing 29/CMe3/H/H/S],BCL2 gene induction,[1]; Table 4b,− (− Indicates less than 2 fold induction)
same,DDIT3 gene induction,[2]; Table 4a,− (− Indicates less than 2 fold induction)
same,GCLM gene induction,[3]; Table 4a,+ (+ indicates a induction of greater than 2 fold)
same,HMOX gene induction,[4]; Table 4b,+ (+ indicates a induction of greater than 2 fold)
same,HSPA1a gene induction,[5]; Table 4b,− (− Indicates less than 2 fold induction)
same,HspA5 gene induction,[6]; Table 4b,− (− Indicates less than 2 fold induction)
same,TUB1 gene induction,[7]; Table 4a,− (− Indicates less than 2 fold induction)
Cc1ccsc1C1C(C#N)=C(N)Oc2[nH]nc(C(C)(C)C)c21 (stereo not shown) [drawing 29/CMe3/H/Me/S],BCL2 gene induction,[1]; Table 4b,− (− Indicates less than 2 fold induction)
same,DDIT3 gene induction,[2]; Table 4a,− (− Indicates less than 2 fold induction)
same,GCLM gene induction,[3]; Table 4a,+ (+ indicates a induction of greater than 2 fold)
same,HMOX gene induction,[4]; Table 4b,+ (+ indicates a induction of greater than 2 fold)
same,HSPA1a gene induction,[5]; Table 4b,− (− Indicates less than 2 fold induction)
same,HspA5 gene induction,[6]; Table 4b,− (− Indicates less than 2 fold induction)
same,TUB1 gene induction,[7]; Table 4a,− (− Indicates less than 2 fold induction)
